The text below walks through data of US20130204033A1, “ANTIPROLIFERATIVE COMPOUNDS, CONJUGATES THEREOF, METHODS THEREFOR, AND USES THEREOF” (Medarex, Inc., priority 2009, published 2013).

Format in all cases: cell-based, human
One assay concerns MDA-MB-231. The experiment in a line: 3H thymidine proliferation assay, MDA-MB-231. Conditions: 3H thymidine method, 72 h incubation; read-out: EC50, MDA-MB-231. The procedure: (§1) This example generally describes the procedures used to assay the antiproliferative activity of compounds of this invention or their conjugates. Human tumor cell lines were obtained from the American Type Culture Collection (ATCC), P.O. Box 1549, Manassas, Va. 20108, USA, and cultured according to instruction from the ATCC. Cells were seeded at 1.0×10^3 or 1.0×10^4 cells/well in 96-well plates for 3 h for ATP assays or ^3H thymidine assays, respectively. 1:3 serial dilutions of free (unconjugated) compounds or their conjugates were added to the wells. Plates were allowed to incubate for 24 to 72 h. The ^3H thymidine plates were pulsed with 1.0 μCi of ^3H-thymidine per well for the last 24 hours of the total incubation period, harvested, and read on a Top Count Scintillation Counter (Packard Instruments, Meriden, Conn.). ATP levels in the ATP plates were measured using the […]-GLO® Luminescent Cell Viability kit following the manufacturer's manual and read on a GLOMAX® 20/20 luminometer (both from Promega, Madison, Wis., USA). The EC50 values—the concentration at which an agent inhibits or reduces cell proliferation by 50% —were determined using PRISM™ software, version 4.0 (GraphPad Software, La Jolla, Calif., USA).
(§2) Using the ^3H thymidine or the ATP luminescence assay, or both, the activities of compounds of this invention were assayed against the following cancer cell lines: HCT-15 (colorectal cancer, multi-drug resistant (MDR)); Hep3B (liver cancer); LNCaP (prostate cancer, androgen receptor positive (AR^+)); MDA-MB-231 (breast cancer, estrogen receptor, progesterone receptor, and Her2 negative (triple negative)); A2058 (melanoma); U-87 MG (glioblastoma); NCI-H460 (NSCLC); A549 (NSCLC); HPAC (pancreatic cancer, primary); PC3 (prostate cancer, AR); BT474 (breast cancer, Her2 highly positive (Her2hi)); SKOV3 (ovarian cancer, Her2hi); 786-O (renal cancer); UO-31 (renal cancer, MDR); NCI-H740 (SCLC); DMS53 (SCLC); SK-BR3 (breast cancer, Her2hi); ZR-75 (breast cancer, estrogen receptor positive); OVCAR3 (ovarian cancer); HL-60 (APL); OVCAR8/Adr (ovarian cancer, MDR); CEM-Cl (ALL); Nomo-1 (AML); RPMI-8226 (MM)); Raji (lymphoma); SW-480 (colorectal cancer, metastatic); SW-620 (colorectal cancer); and H226 (lung cancer). (Not all compounds were assayed against all cell lines.)
(§3) Table 2 provides the data for proliferation assays using the ^3H thymidine method, with an incubation period of 72 h.

Another assay deals with A2058. Briefly: 3H thymidine proliferation assay, A2058. Particulars: 3H thymidine method, 72 h incubation. The procedure:
as §1, §2, §3

The next assay deals with NCI-H460. The experiment in a line: 3H thymidine proliferation assay, NCI-H460. Particulars: 3H thymidine method, 72 h incubation; read-out: EC50, NCI-H460. The procedure:
as §1, §2, §3

The subject of assay [1] is PC3. The experiment in a line: 3H thymidine proliferation assay, PC3. Particulars: 3H thymidine method, 72 h incubation; read-out: EC50, PC3. The procedure:
as §1, §2, §3

The test system of a further assay is BT474. Briefly: 3H thymidine proliferation assay, BT474. Conditions: 3H thymidine method, 72 h incubation; read-out: EC50, BT474. How it is done:
as §1, §2, §3

The test system of the next assay is OVCAR8. The experiment in a line: 3H thymidine proliferation assay, OVCAR8. Conditions: 3H thymidine method, 72 h incubation; read-out: EC50, OVCAR8. How it is done: as §1, §2, §3
For a further assay, the system named is CEM-C1. The experiment in a line: 3H thymidine proliferation assay, CEM-C1. Conditions: 3H thymidine method, 72 h incubation; read-out: EC50, CEM-C1. How it is done:
as §1, §2, §3

In another assay the test system is Nomo-1. Briefly: 3H thymidine proliferation assay, Nomo-1. Conditions: 3H thymidine method, 72 h incubation; read-out: EC50, Nomo-1. The procedure:
as §1, §2, §3

For the next assay, the system named is RPMI-8226. The experiment in a line: 3H thymidine proliferation assay, RPMI-8226. Particulars: 3H thymidine method, 72 h incubation; read-out: EC50, RPMI-8226. How it is done: as §1, §2, §3
In assay [2] the test system is PC3. The experiment in a line: ATP luminescence proliferation assay, PC3. Particulars: ATP luminescence, PC3, 48 h incubation; read-out: EC50 PC3 (48 h). The procedure: as §1, §2
(§4) Table 3 provides the data for the ATP luminescence proliferation assays, with an incubation period of 48, 72, or 96 h, as noted.

The subject of another assay is SKOV3. Briefly: ATP luminescence proliferation assay, SKOV3. Particulars: ATP luminescence, SKOV3, 48 h incubation; read-out: EC50 SKOV3 (48 h). How it is done: as §1, §2, §4
The next assay concerns SK-BR3. The experiment in a line: ATP luminescence proliferation assay, SK-BR3. Particulars: ATP luminescence, SK-BR3, 48 h incubation; read-out: EC50 SK-BR3 (48 h). How it is done:
as §1, §2, §4

The subject of a further assay is HL-60. The experiment in a line: ATP luminescence proliferation assay, HL-60. Conditions: ATP luminescence, HL-60, 72 h incubation; read-out: EC50 HL-60 (72 h). The procedure:
as §1, §2
FIGS. 12a and 12b show illustrative plots for ATP luminescence proliferation assays for a second set of compounds of this invention, against HL-60 and 786-O cells, respectively, with an incubation period of 72 h. FIGS. 12c and 12d show the plots for ^3H thymidine proliferation assays for the same set of compounds, again against HL-60 and 786-O cells, respectively, with a 72 h incubation period. In each instance, doxorubicin was used as a comparative compound.
as §4

A further assay concerns CEM-Cl. Briefly: ATP luminescence proliferation assay, CEM-C1. Particulars: ATP luminescence, CEM-C1, 72 h incubation; read-out: EC50 CEM-C1 (72 h). The procedure: as §1, §2, §4
A further assay concerns Raji. Briefly: ATP luminescence proliferation assay, Raji. Conditions: ATP luminescence, 72 h incubation, read-out: EC50 Raji (72 h). How it is done: as §1, §2, §4
Another assay concerns SW-480. Briefly: ATP luminescence proliferation assay, SW-480. Particulars: ATP luminescence, SW480, 96 h incubation; read-out: EC50 SW480 (96 h). How it is done:
as §1, §2, §4

The test system of a further assay is Hep3B. Briefly: ATP luminescence proliferation assay, Hep3B. Particulars: ATP luminescence, 48 h incubation, read-out: EC50 Hep3B (48 h). How it is done: as §1, §2, §4

`CC[C@H](C)[C@H](NC(=O)[C@H]1CCCCN1C)C(=O)N(C)[C@H](C[C@@H](OC)c1nc(C(=O)N[C@@H](Cc2ccccc2)C(=O)OC)cs1)C(C)C` [Compound 16]: the concentration giving a half-maximal response (EC50) – broadly, the concentration giving half of the maximal effect – in the assay with MDA-MB-231 is greater than 0.1 µM; in the assay with A2058, greater than 0.1 µM; in the assay on NCI-H460 it was greater than 0.1 µM; in the assay with PC3 [1], greater than 0.1 µM; with BT474 it was greater than 0.1 µM; in the assay with OVCAR8, 1.87 µM. In addition, the EC50 in the assay with CEM-C1 was 0.011 µM; with Nomo-1, 0.0018 µM; in the assay on RPMI-8226 it was 0.022 µM; with PC3 [2] it was greater than 0.1 µM; in the assay on SKOV3, 0.018 µM; in the assay with SK-BR3, 0.0066 µM. Also, the EC50 with HL-60 came out at 0.0028 µM; in the assay on CEM-Cl it was 0.0025 µM; with Raji it was 0.003 µM; in the assay on SW-480, 0.048 µM.

In the case of `CC[C@H](C)[C@H](NC(=O)[C@H]1CCCCN1C)C(=O)N(C)[C@H](C[C@@H](OC(C)=O)c1nc(C(=O)N[C@@H](Cc2ccc(N)cc2)C(=O)O)cs1)C(C)C` [Compound 56], the concentration for a half-maximal effect (EC50) is greater than 0.1 µM in the assay on MDA-MB-231; greater than 0.1 µM in the assay with A2058; greater than 0.1 µM in the assay on NCI-H460; greater than 0.1 µM with PC3 [1]; greater than 0.1 µM with BT474; greater than 3 µM with OVCAR8. Moreover, the concentration giving a half-maximal response (EC50) in the assay on CEM-C1, in the assay on Nomo-1, in the assay with RPMI-8226, in the assay with Hep3B, with PC3 [2] and in the assay on SKOV3 was greater than 0.1 µM in each case. Also, the EC50 with SK-BR3 was greater than 0.1 µM; in the assay with HL-60, greater than 0.1 µM; in the assay with CEM-Cl it was greater than 0.1 µM; in the assay with Raji it was 0.024 µM; with SW-480, greater than 0.1 µM.
